Data set [1] relates to S. mutans. Nature of the data set: microbe, parasite or virus in culture. Format: cell-based, Streptococcus mutans. Put shortly: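 Mid-exponential cultures (OD470 0.6) in THB were exposed to compound concentrations for 16 h, with growth read at OD470 and normalised to 1% DMSO control (100%). CFU/mL were also counted after 24 h at 37 °C and compared with the DMSO control.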

The test system of data set [2] is S. mutans biofilm. As to the kind of experiment: S. mutans biofilm formation and inhibition assay (96-well plates, crystal violet). In kind it is cell-based, Streptococcus mutans. The conditions noted are these: Streptococcus mutans.
Data set [3] relates to S. mutans colonization. As to the kind of experiment: Sucrose-dependent Drosophila colonization model. In kind it is in vivo. The conditions noted are these: chalcones; 100 μM or 50 μM.
Method: Briefly, Gfp tagged S. mutans bacteria were infected into flies along with the treatment appropriate compound at 100 μM in a feeding-assay.
Mid-log phase THB cultures of Gfp-tagged (green fluorescent protein) S. mutans UA159 were spun down and resuspended in a solution containing 5% sucrose and 50 μM of the compound. 100 μL of resuspended cells were spotted onto a sterile filter that was placed on the surface of 5 mL of solidified 5% sucrose agar in a plastic vial. The vials were allowed to dry at room temperature for 30 minutes prior to addition of flies. Male Canton S flies (1-3 days old) were treated with antibiotics for 2 days and starved for 3 hours prior to the addition to vials supplied with S. mutans (10 flies per vial). The colonization of flies by Gfp-tagged strains were analyzed by Nikon elipse 90i microscope, equipped with an Epi-fluorescence and NIS elements AR imaging system.
The intensity of the fluorescence was measured in the guts of the flies fed with the Gfp tagged bacteria after 7 days of infection.
Cultures of Gfp-tagged (green fluorescent protein) S. mutans UA159 grown to middle log phase were spun down and re-suspended in a solution containing 5% sucrose and 50 μM of each compound. 100 μL of re-suspended cells were aliquoted onto a sterile filter that was placed on the surface of 5 mL of solidified 5% sucrose agar in a plastic vial. Upon the drying of the vials at room temperature for 30 min, the flies were introduced to the vessels. Male Canton S flies (1-3 days old) were treated with antibiotics for 2 days and starved for 3 h before the addition to vials supplied with S. mutans (10-14 flies per vial). Nikon elipse 90i microscope, equipped with an Epi-fluorescence and NIS elements AR imaging system was used to analyze the colonization of flies by Gfp-tagged strains.
The test system of data set [4] is S. mutans Gtfs. As to the kind of experiment: Gtf zymographic assay with SDS-PAGE. In kind it is biochemical, Streptococcus mutans. The conditions noted are these: 50 μM added to cultures. The method, then:
A well-established zymographic assay was used to determine enzymatic activity of Gtfs (Mattos-Graner et al. (2004) J. Clin. Microbiol. 42, […]). In brief, overnight S. mutans UA159 cultures were diluted 1:100 in fresh 5 mL THB with 50 μL of selective compounds at a series of concentrations. Treated bacteria were grown to OD470 of 1.0, and spun down by centrifugation at 4° C., and culture supernatants were collected and filtered through a 0.22-μm-pore-size filter membrane to remove residual bacterial cells and dialyzed at 4° C. against 0.02 M sodium phosphate buffer (pH 6.8), with 10 μM phenylmethylsulfonyl fluoride (PMSF), followed by a second dialysis against 0.2 mM sodium phosphate containing 10 μM PMSF. After dialysis, 4 mL of samples were concentrated to 40 μL by 100K Amicon Ultra-4 centrifugal filter (Merck Millipore Ltd.). For electrophoresis and zymographic analysis, 10 μL of each concentrated culture supernatant was applied to 8% SDS-PAGE in duplicate. One gel was used for protein staining with Coomassie blue dye, while the other one was subjected to zymographic assay as described (Mattos-Graner et al. (2004) J. Clin. Microbiol. 42, […]). The resultant white opaque glucan bands were visualized against a black background.
Inhibition of the activity of Gtfs determined by zymographic assays. Well established zymographic assay was used to determine enzymatic activity of Gtfs. In brief, overnight S. mutans UA159 cultures were diluted 1:100 in fresh 5 mL THB. Bacteria were grown to OD470 of 1.0, and spun down by centrifugation at 4° C. and culture supernatants were collected and filtered through a 0.22-μm-pore-size filter membrane to remove residual bacterial cells and dialyzed at 4° C. against 0.02 M sodium phosphate buffer (pH 6.8), with 10 μM phenylmethylsulfonyl fluoride (PMSF), followed by a second dialysis against 0.2 mM sodium phosphate containing 10 μM PMSF. After dialysis, 4 mL of samples were concentrated to 40 μL by 100K Amicon Ultra-4 centrifugal filter (Merk Millipore Ltd.). For electrophoresis and zymographic analysis, 10 μL of each concentrated culture supernatant was applied to 8% SDS-PAGE in duplicate. One gel was used for protein staining with Coomassie blue dye, while the other one was subjected to zymographic assay. For zymogram analysis, following electrophoretic separation, gels were washed twice for 15 min each with renaturing buffer containing 2.5% Triton X-100. Gels were then incubated for 18 h at 37° C. with 0.2 M sodium phosphate buffer (pH 6.5) containing 0.2% dextran T70, 5% sucrose, and varying concentrations of the small molecule inhibitors. The reactions were stopped by washing gels with distilled water at 4° C. for 10 min, and digital images of the resultant white opaque glucan bands were visualized against a black background and captured using a digital camera.
Inhibition of the activity of Gtfs determined by zymographic assays. A well-established zymographic assay was used to determine enzymatic activity of Gtfs (Mattos-Graner, R. O., Napimoga, M. H., Fukushima, K., Duncan, M. J., Smith, D. J., J Clin Microbiol, 2004, 42, 4586). In brief, overnight S. mutans UA159 cultures were diluted 1:100 in fresh 5 mL THB with 50 μL of selective compounds at a series of concentrations. Treated bacteria were grown to OD470 of 1.0, and spun down by centrifugation at 4° C., and culture supernatants were collected and filtered through a 0.22-μm-pore-size filter membrane to remove residual bacterial cells and dialyzed at 4° C. against 0.02 M sodium phosphate buffer (pH 6.8), with 10 μM phenylmethylsulfonyl fluoride (PMSF), followed by a second dialysis against 0.2 mM sodium phosphate containing 10 μM PMSF. After dialysis, 4 mL of samples were concentrated to 40 μL by 100K Amicon Ultra-4 centrifugal filter (Merk Millipore Ltd.). For electrophoresis and zymographic analysis, 10 μL of each concentrated culture supernatant was applied to 8% SDS-PAGE in duplicate. […]

Molecules are shown by their SMILES. Where two headings read alike, the source gives them in different places.

Usually IC50 stands for the concentration at which inhibition is half-maximal. Broadly, the melting point is the temperature, or range, at which the solid turns liquid. For the compound `O=C(/C=C\c1ccc(O)cc1O)c1cccc(O)c1` [Compound 9b, (Z)-3-(2,4-Dihydroxyphenyl)-1-(3-hydroxyphenyl)-2-propen-1-one], the melting point was 164 to 167 °C. In addition, the “selectivity (index / fold) for biofilm over growth” value in data set [1] is “about 10”. Moreover, the IC50 in data set [1] (Streptococcus mutans, Table 7, synthesized analogs of compound 9, read-out: Growth IC50) amounted to 468 ± 16 µM. Moreover, the “SI (selectivity index)” value in data set [1] (Table 7, growth IC50 value divided by biofilm IC50 value) turned out to be 10.6. In data set [2] (Table 7, synthesized analogs of compound 9, read-out: Biofilm IC50), the IC50 came out at 44 ± 5 µM. The concentration for half-maximal inhibition (IC50) in data set [2] (read-out: S. mutans biofilm IC50) stood at 44 µM. Besides, in data set [3], the “fluorescence of Gfp tagged S. mutans in fly guts after 7 days” value was “marked reduction in fluorescence”. In data set [4], the “Gtf enzyme inhibitory activity, glucan bands in zymogram” value is on record as “exhibit the best inhibitory effects” and the “production of Gtfs, protein level on SDS-PAGE” value is “showed an inhibitory effect on the production of Gtfs”.

The values are drawn from patent publication US11866416B2, “Streptococcus mutans glucosyl transferase inhibitors for dental caries therapy” (UAB Research Foundation, priority 2018, dated 2024).
